Experimental data reported in patent publication US8163793B2, “Proline derivatives” (Hoffman-La Roche Inc., priority 2009, dated 2012).

Assays:
Cathepsin S = Cathepsin S (UniProt P25774); assay: Cathepsin enzyme inhibition assay (fluorogenic peptide substrate Z-Val-Val-Arg-AMC), Cathepsin S; type: biochemical, human and mouse; conditions: enzyme 1 nM, substrate 20 μM, pH 6.5; read-out: CatS IC50
Method: (§1) Cathepsin Enzyme Inhibition Assay
(§2) Enzyme activity is measured by observing the increase in fluorescence intensity caused by cleavage of a peptide substrate containing a fluorophore whose emission is quenched in the intact peptide.
(§3) Assay buffer: 100 mM potassium phosphate pH 6.5, EDTA-Na 5 mM, Triton X-100 0.001%, DDT 5 mM.
(§4) Enzymes (all at 1 nM): human and mouse Cathepsin S, Cat K, Cat B, Cat L Substrate (20 μM): Z-Val-Val-Arg-AMC, except for Cat K which uses Z-Leu-Arg-AMC (both from Bachem).
(§5) AMC=7-Amino-4-Methyl-Coumarin.
Enzyme is added to the substance dilutions in 96-well microtitre plates and the reaction is started with substrate. […] IC50 are calculated by standard methods. The results are expressed in μM in the following table.

Cat L = Cat L (UniProt P07711); assay: Cathepsin enzyme inhibition assay (fluorogenic peptide substrate Z-Val-Val-Arg-AMC), Cathepsin L; type: biochemical, human and mouse; conditions: enzyme 1 nM, substrate 20 μM, pH 6.5; read-out: CatL IC50
Method: as §1, §2, §3, §4, §5
Excitation 360 nm, Emission 465 nm.
Enzyme is added to the substance dilutions in 96-well microtitre plates and the reaction is started with substrate. Fluorescence emission is measured over 20 minutes, during which time a linear increase is observed in the absence of inhibitor. IC50 are calculated by standard methods. The results are expressed in μM in the following table.

Compound | IC50 (Cathepsin S) | IC50 (Cat L)
CC(C)(C)OC(=O)N1C[C@H](S(=O)(=O)c2c(Cl)cccc2Cl)C[C@H]1C(=O)NC1(C#N)CC1 [Example 47, (2S,4R)-2-(1-Cyano-cyclopropylcarbamoyl)-4-(2,6-dichloro-benzenesulfonyl)-pyrrolidine-1-carboxylic acid tert-butyl ester] | 1.4 nM | –
N#CC1(NC(=O)[C@@H]2C[C@@H](S(=O)(=O)c3ccccc3C(F)(F)F)CN2c2ccccc2)CC1 [Example 119, (2S,4R)-1-Phenyl-4-(2-trifluoromethyl-benzenesulfonyl)-pyrrolidine-2-carboxylic acid (1-cyano-cyclopropyl)-amide] | – | ≥ 25000 nM
N#CCNC(=O)[C@@H]1C[C@@H](S(=O)(=O)c2ccccc2C(F)(F)F)CN1c1ccccc1 [Example 151, (2S,4R)-1-Phenyl-4-(2-trifluoromethyl-benzenesulfonyl)-pyrrolidine-2-carboxylic acid cyanomethyl-amide] | – | ≥ 25000 nM
N#CC1(NC(=O)[C@@H]2C[C@@H](S(=O)(=O)c3ccccc3C(F)(F)F)CN2c2ccnc(C(F)(F)F)n2)CC1 [Example 185, (2S,4R)-4-(2-Trifluoromethyl-benzenesulfonyl)-1-(2-trifluoromethyl-pyrimidin-4-yl)-pyrrolidine-2-carboxylic acid (1-cyano-cyclopropyl)-amide] | – | ≥ 25000 nM
N#CC1(NC(=O)[C@@H]2C[C@@H](S(=O)(=O)c3ccccc3C(F)(F)F)CN2c2ncccc2C(F)(F)F)CC1 [Example 186, (2S,4R)-4-(2-Trifluoromethyl-benzenesulfonyl)-1-(3-trifluoromethyl-pyridin-2-yl)-pyrrolidine-2-carboxylic acid (1-cyano-cyclopropyl)-amide] | – | ≥ 25000 nM
N#CC1(NC(=O)[C@@H]2C[C@@H](S(=O)(=O)c3ccccc3Cl)CN2C(=O)C2(c3ccc(Cl)cc3)CC2)CC1 [Example 215, (2S,4R)-4-(2-Chloro-benzenesulfonyl)-1-[1-(4-chloro-phenyl)-cyclopropanecarbonyl]-pyrrolidine-2-carboxylic acid (1-cyano-cyclopropyl)-amide] | 0.2 nM | –
Cc1cc(N2C[C@H](S(=O)(=O)c3ccccc3C(F)(F)F)C[C@H]2C(=O)NC2(C#N)CC2)nn1C [Example 255, (2S,4R)-1-(1,5-Dimethyl-1H-pyrazol-3-yl)-4-(2-trifluoromethyl-benzenesulfonyl)-pyrrolidine-2-carboxylic acid (1-cyano-cyclopropyl)-amide] | 5.65 nM | –
N#CC1(NC(=O)[C@@H]2C[C@@H](S(=O)(=O)c3ccc(-c4ccc(F)cc4F)cc3C(F)(F)F)CN2C(=O)C2(C(F)(F)F)CC2)CC1 [Example 263, (2S,4R)-4-(2′,4′-Difluoro-3-trifluoromethyl-biphenyl-4-sulfonyl)-1-(1-trifluoromethyl-cyclopropanecarbonyl)-pyrrolidine-2-carboxylic acid (1-cyano-cyclopropyl)-amide] | 0.33 nM | –
Cc1cc(N2C[C@H](S(=O)(=O)c3ccccc3C(F)(F)F)C[C@H]2C(=O)NC2(C#N)CC2)n[nH]1 [Example 286, (2S,4R)-1-(5-Methyl-1H-pyrazol-3-yl)-4-(2-trifluoromethyl-benzenesulfonyl)-pyrrolidine-2-carboxylic acid (1-cyano-cyclopropyl)-amide] | 15 nM | –
N#CC1(NC(=O)[C@@H]2C[C@@H](S(=O)(=O)c3ccc(N4CCN(CC(F)(F)F)CC4)cc3Cl)CN2C(=O)C2(C(F)(F)F)CC2)CC1 [Example 291, (2S,4R)-4-{2-Chloro-4-[4-(2,2,2-trifluoro-ethyl)-piperazin-1-yl]-benzenesulfonyl}-1-(1-trifluoromethyl-cyclopropanecarbonyl)-pyrrolidine-2-carboxylic acid (1-cyano-cyclopropyl)-amide] | 14.7 nM | –
CN1CCN(c2ccc(S(=O)(=O)[C@@H]3CC(C(=O)NC4(C#N)CC4)N(C(=O)C4(C(F)(F)F)CC4)C3)c(Cl)c2)CC1 (stereo partly drawn) [Example 305, (R)-4-[2-Chloro-4-(4-methyl-piperazin-1-yl)-benzenesulfonyl]-1-(1-trifluoromethyl-cyclopropanecarbonyl)-pyrrolidine-2-carboxylic acid (1-cyano-cyclopropyl)-amide] | 19.7 nM | –
N#CC1(NC(=O)[C@@H]2C[C@@H](S(=O)(=O)c3ccc(F)cc3Cl)CN2C(=O)C2(c3ccc(Cl)cc3)CC2)CC1 [Example 312, (2S,4R)-4-(2-Chloro-4-fluoro-benzenesulfonyl)-1-[1-(4-chloro-phenyl)-cyclopropanecarbonyl]-pyrrolidine-2-carboxylic acid (1-cyano-cyclopropyl)-amide] | 0.195 nM | –
CN1CCN(c2ccc(S(=O)(=O)[C@@H]3C[C@@H](C(=O)NC4(C#N)CC4)N(C(=O)C4(c5ccc(Cl)cc5)CC4)C3)c(Cl)c2)CC1 [Example 324, (2S,4R)-4-[2-Chloro-4-(4-methyl-piperazin-1-yl)-benzenesulfonyl]-1-[1-(4-chloro-phenyl)-cyclopropanecarbonyl]-pyrrolidine-2-carboxylic acid (1-cyano-cyclopropyl)-amide] | 0.09 nM | –
N#CC1(NC(=O)[C@@H]2C[C@@H](S(=O)(=O)c3ccc(-n4ccnc4)cc3Cl)CN2C(=O)C2(c3ccc(Cl)cc3)CC2)CC1 [Example 325, (2S,4R)-4-(2-Chloro-4-imidazol-1-yl-benzenesulfonyl)-1-[1-(4-chloro-phenyl)-cyclopropanecarbonyl]-pyrrolidine-2-carboxylic acid (1-cyano-cyclopropyl)-amide] | 0.08 nM | –
Cc1nccn1-c1ccc(S(=O)(=O)[C@@H]2C[C@@H](C(=O)NC3(C#N)CC3)N(C(=O)C3(c4ccc(Cl)cc4)CC3)C2)c(Cl)c1 [Example 326, (2S,4R)-4-[2-Chloro-4-(2-methyl-imidazol-1-yl)-benzenesulfonyl]-1-[1-(4-chloro-phenyl)-cyclopropanecarbonyl]-pyrrolidine-2-carboxylic acid (1-cyano-cyclopropyl)-amide] | 0.18 nM | –
N#CC1(NC(=O)[C@@H]2C[C@@H](S(=O)(=O)c3ccc(-n4cccn4)cc3Cl)CN2C(=O)C2(c3ccc(Cl)cc3)CC2)CC1 [Example 327, (2S,4R)-1-[1-(4-Chloro-phenyl)-cyclopropanecarbonyl]-4-(2-chloro-4-pyrazol-1-yl-benzenesulfonyl)-pyrrolidine-2-carboxylic acid (1-cyano-cyclopropyl)-amide] | 0.175 nM | –
CC(C)(C)N1CCN(c2ccc(S(=O)(=O)[C@@H]3C[C@@H](C(=O)NC4(C#N)CC4)N(C(=O)C4(c5ccc(Cl)cc5)CC4)C3)c(Cl)c2)CC1 [Example 329, (2S,4R)-4-[4-(4-tert-Butyl-piperazin-1-yl)-2-chloro-benzenesulfonyl]-1-[1-(4-chloro-phenyl)-cyclopropanecarbonyl]-pyrrolidine-2-carboxylic acid (1-cyano-cyclopropyl)-amide] | 0.115 nM | –
N#CC1(NC(=O)[C@@H]2C[C@@H](S(=O)(=O)c3ccc(N4CCN(C5CC5)CC4)cc3Cl)CN2C(=O)C2(c3ccc(Cl)cc3)CC2)CC1 [Example 330, (2S,4R)-4-[2-Chloro-4-(4-cyclopropyl-piperazin-1-yl)-benzenesulfonyl]-1-[1-(4-chloro-phenyl)-cyclopropanecarbonyl]-pyrrolidine-2-carboxylic acid (1-cyano-cyclopropyl)-amide] | 0.08 nM | –
CC(C)c1nccn1-c1ccc(S(=O)(=O)[C@@H]2C[C@@H](C(=O)NC3(C#N)CC3)N(C(=O)C3(c4ccc(Cl)cc4)CC3)C2)c(Cl)c1 [Example 336, (2S,4R)-4-[2-Chloro-4-(2-isopropyl-imidazol-1-yl)-benzenesulfonyl]-1-[1-(4-chloro-phenyl)-cyclopropanecarbonyl]-pyrrolidine-2-carboxylic acid (1-cyano-cyclopropyl)-amide] | 0.33 nM | –
Cc1cc(N2C[C@H](S(=O)(=O)c3ccc(N4CC(F)(F)C4)cc3C(F)(F)F)C[C@H]2C(=O)NC2(C#N)CC2)n(C2CCOCC2)n1 [Example 403, (2S,4R)-4-[4-(3,3-Difluoro-azetidin-1-yl)-2-trifluoromethyl-benzenesulfonyl]-1-[5-methyl-2-(tetrahydro-pyran-4-yl)-2H-pyrazol-3-yl]-pyrrolidine-2-carboxylic acid (1-cyano-cyclopropyl)-amide] | 0.49 nM | –
Cc1cc(N2C[C@H](S(=O)(=O)c3ccc(N4CCN(C)CC4)cc3C(F)(F)F)C[C@H]2C(=O)NC2(C#N)CC2)n(C2CCOCC2)n1 [Example 404, (2S,4R)-4-[4-(4-Methyl-piperazin-1-yl)-2-trifluoromethyl-benzenesulfonyl]-1-[5-methyl-2-(tetrahydro-pyran-4-yl)-2H-pyrazol-3-yl]-pyrrolidine-2-carboxylic acid (1-cyano-cyclopropyl)-amide] | 0.405 nM | –
Cc1ccc(C2(C(=O)N3C[C@H](S(=O)(=O)c4ccccc4Cl)C[C@H]3C(=O)NC3(C#N)CC3)CC2)cc1 [Example 438, (2S,4R)-4-(2-chlorophenylsulfonyl)-N-(1-cyanocyclopropyl)-1-(1-p-tolylcyclopropane-carbonyl)pyrrolidine-2-carboxamide] | 0.52 nM | –
N#CC1(NC(=O)[C@@H]2C[C@@H](S(=O)(=O)Cc3ccccc3)CN2C(=O)C2(c3ccc(Cl)cc3)CC2)CC1 [Example 458, (2S,4R)-4-(benzylsulfonyl)-1-(1-(4-chlorophenyl)cyclopropanecarbonyl)-N-(1-cyanocyclopropyl)pyrrolidine-2-carboxamide] | 61900 nM | –
